From US20210369710A1, “MODULATORS OF MYC FAMILY PROTO-ONCOGENE PROTEIN” (Nalo Therapeutics, priority 2019, published 2021)

What was measured:
MycN Protein = target: T1, MycN Protein (Homo sapiens, UniProt P04198); assay: Degradation of MycN protein, Western blot band density in cells; type: cell-based; conditions: HL-60 or SKNBE2 cells; 6 uL of compound (1 mM) added to 3 mL cells; 6 hours; Western blot band density (ImageJ)
T1 construct: endogenous in cells; host or cells: HL-60 or SKNBE2
T1 sequence (P04198 1-464): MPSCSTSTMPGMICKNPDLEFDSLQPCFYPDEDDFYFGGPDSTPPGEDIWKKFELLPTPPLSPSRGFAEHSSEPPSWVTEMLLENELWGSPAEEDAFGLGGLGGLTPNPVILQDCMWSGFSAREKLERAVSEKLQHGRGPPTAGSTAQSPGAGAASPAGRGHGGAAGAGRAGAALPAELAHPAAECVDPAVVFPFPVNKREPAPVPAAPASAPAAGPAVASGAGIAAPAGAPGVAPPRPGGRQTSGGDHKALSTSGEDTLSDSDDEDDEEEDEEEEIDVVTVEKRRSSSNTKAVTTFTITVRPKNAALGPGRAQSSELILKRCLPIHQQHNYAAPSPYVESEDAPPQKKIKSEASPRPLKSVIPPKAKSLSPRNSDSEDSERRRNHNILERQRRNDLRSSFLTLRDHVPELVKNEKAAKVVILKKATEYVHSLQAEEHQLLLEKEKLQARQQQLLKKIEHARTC
Method: (§1) In a T150 flask was plated either 2×10^6 of HL-60 (human leukemia cell line) or SKNBE2 (neuroblastoma cell line) cells in a total of 30 mL containing Roswell Park Memorial Institute (RPMI) 1640 Medium (Thermo Fisher, Cat. #11875-085), 10% Fetal Bovine Serum (FBS, Thermo Fisher: Cat. #10437-028), 1% Penicillin/streptomycin (Thermo Fisher: Cat. #10378016), and 1% Amophotericin B (Thermo Fisher, Cat. #15290026). The cells were split every 72 hours by reseeding the HL-60 or SKNBE2 cells, and the passage number was noted. It is noteworthy that cell cultures that were above 40 passages were not used, and most experiments were done with cells of less than 30 passages.
(§2) In a 6-well cell culture plate, a total of 3 mL of either 1×10^6 cells/mL of HL-60 or SKNBE2 cells were seeded, resulting in a total of 3×10^6 cells per well. To each well containing 3 mL of either HL-60 or SKNBE2 cell line was added 6 uL of MycN modulating compound (1 mM) and the resulting plate was shaken from left to right, and not swirled. After 6 hours, the cells were placed in a 15 mL falcon tube and spun at 500 Gs at 4° C. in a swinging bucket centrifuge. The medium was then carefully removed without disturbing the pellet. The pellet was then washed with 3 mLs of chilled phosphate buffered saline (PBS) and subjected to the spin cycle. PBS was then removed and the pellet was lysed in 200 uL of radioimmunoprecipitation (RIPA) lysis buffer (Thermo Fisher: Cat. #899000) that is supplemented with protease and phosphatase inhibitors (Thermo Fisher: Cat. #A32959). The cell lysate was then subjected to spinning in a centrifuge for 10 minutes at 13000G at 4° C. The supernatant was then carefully transferred to a fresh eppendorf tube without disturbing the pellet (˜180 uL). The protein concentration of the cell lysate was then determined by using a bicinchoninic acid (BCA assay) according to manufacturer's protocol (Thermo Fisher: Cat. #23227).
(§3) Cell lysate, approximately 25 ug-30 ug, was loaded per well in a 4-20% polyacrylamide gel (Biorad. Cat. #5671094). After running the dye front off of the gel, the gel was transferred to a nitrocellulose membrane (Biorad: Cat. #1704159) using the transblot turbo system (Biorad: Cat. #1704150) according to manufacturer's protocol. After transferring for 30 minutes, the membrane was blocked with 5% BSA for 1 hour at room temperature. The BSA was then washed off and the primary antibody of choice (1:500) was added, and the membrane was incubated with the primary antibody at 4° C. for overnight. The next morning, the primary antibody was removed and the membrane was washed with 1×-TBST for 10 minutes and repeated three more times. Following the last wash, a secondary antibody (Molecular Devices. Cat. #R8209 or R8208) was added at 1:5000 dilution and incubated for 1 hour at room temperature. Following the incubation with the secondary antibody, the membrane was washed with 1×-TBST for 10 minutes and repeated three more times. Following the last wash, the membrane was washed with de-ionized water twice and dried for at least two hours. Once the membrane is completely dry, the Molecular Devices Spectra Max western system was used to observe the bands. The western image was saved and the band density was measured with ImageJ software.

MycC Protein = target: T2, MycC Protein (Homo sapiens, UniProt P01106); assay: Degradation of MycC protein, Western blot band density in cells; type: cell-based; conditions: HL-60 or SKNBE2 cells; 6 uL of compound (1 mM) added to 3 mL cells; 6 hours; Western blot band density (ImageJ)
T2 construct: endogenous in cells; host or cells: HL-60 or SKNBE2
T2 sequence (P01106 whole entry): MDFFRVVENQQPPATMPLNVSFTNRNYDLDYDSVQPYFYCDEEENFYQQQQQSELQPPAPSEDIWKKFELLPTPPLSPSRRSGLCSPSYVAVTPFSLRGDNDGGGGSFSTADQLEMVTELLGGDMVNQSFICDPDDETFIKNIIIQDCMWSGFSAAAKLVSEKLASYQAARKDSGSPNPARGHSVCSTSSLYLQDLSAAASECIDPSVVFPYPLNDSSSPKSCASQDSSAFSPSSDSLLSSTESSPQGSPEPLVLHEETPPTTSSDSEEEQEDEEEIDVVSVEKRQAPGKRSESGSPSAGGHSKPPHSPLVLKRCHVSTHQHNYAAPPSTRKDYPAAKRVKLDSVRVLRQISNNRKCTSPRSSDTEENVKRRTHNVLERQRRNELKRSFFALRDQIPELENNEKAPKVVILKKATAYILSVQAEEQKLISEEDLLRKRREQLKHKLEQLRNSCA
Method: as §1, §2, §3

| Structure (SMILES) | Dmax at 2 µM (MycN Protein) [%] | Dmax at 2 µM (MycC Protein) [%] | % Degradation of MycN (MycN Protein) | % Degradation of MycC (MycC Protein) |
| --- | --- | --- | --- | --- |
| N#Cc1ccc2c(c1)CC(NC(=O)N[C@H]1CC[C@H](Nc3nccc(Nc4cc(C5CCCC5)[nH]n4)n3)CC1)C2 (stereo partly drawn) [Compound 11 (Fraction 2), 1-(5-cyano-2,3-dihydro-1H-inden-2-yl)-3-((1R,4R)-4-((4-((5-cyclopentyl-1H-pyrazol-3-yl)amino)pyrimidin-2-yl)amino)cyclohexyl)urea] |  |  | *** (***: degradation 50-79%) | **** (****: degradation 80-100%) |
| O=C(NC1CCN(C2COC2)CC1)N[C@H]1CC[C@H](Nc2nccc(Nc3cc(C4CCCC4)[nH]n3)n2)CC1 [Compound 12, 1-((1R,4R)-4-((4-((5-cyclopentyl-1H-pyrazol-3-yl)amino)pyrimidin-2-yl)amino)cyclohexyl)-3-(1-(oxetan-3-yl)piperidin-4-yl)urea] | < 20 | < 20 |  |  |
| CN(c1nccc(Nc2cc(C3CCCC3)[nH]n2)n1)C1CCC(NC(=O)NC2Cc3ccc(C#N)cc3C2)CC1 [Compound 16 (Fraction 1), 1-(5-cyano-2,3-dihydro-1H-inden-2-yl)-3-((1R,4R)-4-((4-((5-cyclopentyl-1H-pyrazol-3-yl)amino)pyrimidin-2-yl)(methyl)amino)cyclohexyl)urea] |  |  | *** (***: degradation 50-79%) | **** (****: degradation 80-100%) |
| CN(c1nccc(Nc2cc(C3CCCC3)[nH]n2)n1)C1CCC(NC(=O)NC2Cc3ccc(C#N)cc3C2)CC1 [Compound 16 (Fraction 2), 1-(5-cyano-2,3-dihydro-1H-inden-2-yl)-3-((1R,4R)-4-((4-((5-cyclopentyl-1H-pyrazol-3-yl)amino)pyrimidin-2-yl)(methyl)amino)cyclohexyl)urea] |  |  | *** (***: degradation 50-79%) | **** (****: degradation 80-100%) |
| O=C(NC1CCS(=O)(=O)CC1)N[C@H]1CC[C@H](Nc2nccc(Nc3cc(C4CCCC4)[nH]n3)n2)CC1 [Compound 24] | < 20 | 20 to 49 |  |  |
| O=C(NC1CCCS(=O)(=O)C1)N[C@H]1CC[C@H](Nc2nccc(Nc3cc(C4CCCC4)[nH]n3)n2)CC1 (stereo partly drawn) [Compound 25] | < 20 | < 20 |  |  |
| CS(=O)(=O)[C@H]1CCCC(NC(=O)N[C@H]2CC[C@H](Nc3nccc(Nc4cc(C5CCCC5)[nH]n4)n3)CC2)C1 (stereo partly drawn) [Compound 26] | 20 to 49 | < 20 |  |  |
| Cc1cc(Nc2ccnc(N[C@H]3CC[C@H](NC(=O)N[C@H]4CC[C@H](S(C)(=O)=O)CC4)CC3)n2)n[nH]1 [Compound 32] | < 20 | < 20 |  |  |
| O=C(N[C@@H]1CCC[C@H](C(F)(F)F)C1)N[C@H]1CC[C@H](Nc2nccc(Nc3cc(C4CCCC4)[nH]n3)n2)CC1 [Compound 35, 1-((1R,4R)-4-((4-((5-cyclopentyl-1H-pyrazol-3-yl)amino)pyrimidin-2-yl)amino)cyclohexyl)-3-((1R,3S/1S,3R)-3-(trifluoromethyl)cyclohexyl)urea] | 80 to 100 | 20 to 49 |  |  |
| O=C(NC1CCC(N2CCOC2=O)CC1)N[C@H]1CC[C@H](Nc2nccc(Nc3cc(C4CCCC4)[nH]n3)n2)CC1 (stereo partly drawn) [Compound 37, 1-((1R,4R)-4-((4-((5-cyclopentyl-1H-pyrazol-3-yl)amino)pyrimidin-2-yl)amino)cyclohexyl)-3-(4-(2-oxooxazolidin-3-yl)cyclohexyl)urea] | < 20 | < 20 |  |  |
| CC1(NC(=O)N[C@H]2CC[C@H](Nc3nccc(Nc4cc(C5CCCC5)[nH]n4)n3)CC2)CCOCC1 [Compound 38, 1-((1R,4R)-4-((4-((5-cyclopentyl-1H-pyrazol-3-yl)amino)pyrimidin-2-yl)amino)cyclohexyl)-3-(4-methyltetrahydro-2H-pyran-4-yl)urea] | 20 to 49 | 50 to 79 |  |  |
| O=C(Nc1cccc(C(F)(F)F)c1)N[C@H]1CC[C@H](Nc2nccc(Nc3cc(C4CCCC4)[nH]n3)n2)CC1 [Compound 39, 1-((1R,4R)-4-((4-((5-cyclopentyl-1H-pyrazol-3-yl)amino)pyrimidin-2-yl)amino)cyclohexyl)-3-(3-(trifluoromethyl)phenyl)urea] | 50 to 79 | 20 to 49 |  |  |
| COCCNC(=O)NC1CCC(Nc2nccc(Nc3cc(C4CCCC4)[nH]n3)n2)CC1 [Compound 43, 1-((1R,4R)-4-((4-((5-cyclopentyl-1H-pyrazol-3-yl)amino)pyrimidin-2-yl)amino)cyclohexyl)-3-(2-methoxyethyl)urea] | 20 to 49 | 20 to 49 |  |  |

Second part, led by results:

| Dmax at 2 µM (MycN Protein) [%] | Dmax at 2 µM (MycC Protein) [%] | Structure (SMILES) | % Degradation of MycN (MycN Protein) | % Degradation of MycC (MycC Protein) |
| --- | --- | --- | --- | --- |
| 80 to 100 | 80 to 100 | Cc1nc(-c2ccc3c(c2)CC(NC(=O)N[C@H]2CC[C@H](Nc4nccc(Nc5cc(C6CCCC6)[nH]n5)n4)CC2)C3)no1 (stereo partly drawn) [Compound 20, 1-((1R,4R)-4-((4-((5-cyclopentyl-1H-pyrazol-3-yl)amino)pyrimidin-2-yl)amino)cyclohexyl)-3-(5-(5-methyl-1,2,4-oxadiazol-3-yl)-2,3-dihydro-1H-inden-2-yl)urea] |  |  |
| 20 to 49 | < 20 | N#Cc1ccc2c(c1)CC(NC(=O)N[C@H]1CC[C@H](Nc3nccc(Nc4cc(C5CC5)[nH]n4)n3)CC1)C2 (stereo partly drawn) [Compound 21, 1-(5-cyano-2,3-dihydro-1H-inden-2-yl)-3-((1R,4R)-4-((4-((5-cyclopropyl-1H-pyrazol-3-yl)amino)pyrimidin-2-yl)amino)cyclohexyl)urea] |  |  |
| < 20 | 50 to 79 | O=C(NC1CS(=O)(=O)C1)N[C@H]1CC[C@H](Nc2nccc(Nc3cc(C4CCCC4)[nH]n3)n2)CC1 [Compound 34] |  |  |
| 50 to 79 | 50 to 79 | O=C(Nc1cccc(C(F)(F)F)c1)N[C@H]1CC[C@@H](Nc2nccc(Nc3cc(C4CCCC4)[nH]n3)n2)CC1 [Compound 40, 1-((1S,4S)-4-((4-((5-cyclopentyl-1H-pyrazol-3-yl)amino)pyrimidin-2-yl)amino)cyclohexyl)-3-(3-(trifluoromethyl)phenyl)urea] |  |  |
| < 20 | 20 to 49 | CO[C@H]1C[C@H](NC(=O)NC2CCC(Nc3nccc(Nc4cc(C5CCCC5)[nH]n4)n3)CC2)C1 (stereo partly drawn) [Compound 44, 1-((1R,4R)-4-((4-((5-cyclopentyl-1H-pyrazol-3-yl)amino)pyrimidin-2-yl)amino)cyclohexyl)-3-((1R,3R)-3-methoxycyclobutyl)urea] |  |  |
| 20 to 49 | < 20 | O=C(NC1COC1)N[C@H]1CC[C@H](Nc2nccc(Nc3cc(C4CCCC4)[nH]n3)n2)CC1 [Compound 46] |  |  |
| < 20 | < 20 | O=C(NC1CC2(COC2)C1)N[C@H]1CC[C@H](Nc2nccc(Nc3cc(C4CCCC4)[nH]n3)n2)CC1 [Compound 47] |  |  |
| < 20 | 20 to 49 | CC(=O)N1CC(NC(=O)N[C@H]2CC[C@H](Nc3nccc(Nc4cc(C5CCCC5)[nH]n4)n3)CC2)C1 [Compound 48, 1-(1-acetylazetidin-3-yl)-3-((1R,4R)-4-((4-((5-cyclopentyl-1H-pyrazol-3-yl)amino)pyrimidin-2-yl)amino)cyclohexyl)urea] |  |  |
